# Test results as given in US8367838B2, “Amines or amino alcohols as GLYT1 inhibitors” (Hoffmann-La Roche Inc., priority 2009, dated 2013).
# Counter-ions that a name gives are not always drawn.
# Molecular target: T1, mGlyT-1b (Mus musculus, UniProt P28571)
# T1 construct: host or cells: Flp-in-CHO
# T1 sequence (P28571 1-651 isoform P28571-2): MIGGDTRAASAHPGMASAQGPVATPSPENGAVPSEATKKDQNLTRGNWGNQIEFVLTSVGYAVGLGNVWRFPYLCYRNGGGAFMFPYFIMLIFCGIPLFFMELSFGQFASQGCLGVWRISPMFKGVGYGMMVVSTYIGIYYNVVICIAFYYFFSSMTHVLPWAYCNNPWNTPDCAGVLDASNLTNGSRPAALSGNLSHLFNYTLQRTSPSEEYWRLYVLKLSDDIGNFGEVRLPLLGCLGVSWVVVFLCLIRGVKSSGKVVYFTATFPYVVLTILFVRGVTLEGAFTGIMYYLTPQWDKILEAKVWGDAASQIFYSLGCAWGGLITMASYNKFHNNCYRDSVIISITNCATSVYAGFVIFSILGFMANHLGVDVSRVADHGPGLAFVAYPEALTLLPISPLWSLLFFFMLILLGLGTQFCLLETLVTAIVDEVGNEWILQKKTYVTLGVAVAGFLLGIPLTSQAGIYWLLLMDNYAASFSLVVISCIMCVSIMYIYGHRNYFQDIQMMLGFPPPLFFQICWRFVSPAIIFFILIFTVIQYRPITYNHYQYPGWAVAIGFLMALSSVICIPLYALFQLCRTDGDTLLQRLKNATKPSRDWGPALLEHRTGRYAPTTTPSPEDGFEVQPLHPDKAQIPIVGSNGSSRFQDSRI
# Experiment: Glycine uptake inhibition assay (mGlyT-1b), [3H]-glycine uptake in transfected Flp-in-CHO cells
# Assay type: cell-based
# Conditions: Flp-in-CHO cells transfected with mGlyT-1b cDNA; [3H]-glycine 60 nM and 25 μM non-radioactive glycine; 20 min preincubation at 22° C.; read-out: IC50 (μM) at GlyT-1; Ic50 (hglyt1b)
# Description: Nutrient mixture F-12 (Gibco Life-technologies), fetal bovine serum (FBS) 5%, (Gibco life technologies), Penicillin/Streptomycin 1% (Gibco life technologies), Hygromycin 0.6 mg/ml (Gibco life technologies), Glutamine 1 mM Gibco life technologies).
# 150 mM NaCl, 10 mM Hepes-Tris, pH 7.4, 1 mM CaCl2, 2.5 mM KCl, 2.5 mM MgSO4, 10 mM (+) D-glucose. Flp-in™-CHO (Invitrogen Cat n° R758-07) cells stably transfected with mGlyT1b cDNA.
# Glycine Uptake Inhibition Assay (mGlyT-1b)
# On day 1 mammalian cells, (Flp-in™-CHO), transfected with mGlyT-1b cDNA, were plated at the density of 40,000 cells/well in complete F-12 medium, without hygromycin in 96-well culture plates. On day 2, the medium was aspirated and the cells were washed twice with uptake buffer (UB). The cells were then incubated for 20 min at 22° C. with either (i) no potential competitor, (ii) 10 mM non-radioactive glycine, (iii) a concentration of a potential inhibitor. A range of concentrations of the potential inhibitor was used to generate data for calculating the concentration of inhibitor resulting in 50% of the effect (e.g. IC50, the concentration of the competitor inhibiting glycine uptake of 50%). A solution was then immediately added containing [^3H]-glycine 60 nM (11-16 Ci/mmol) and 25 μM non-radioactive glycine. The plates were incubated with gentle shaking and the reaction was stopped by aspiration of the mixture and washing (three times) with ice-cold UB. The cells were lysed with scintillation liquid, shaken 3 hours and the radioactivity in the cells was counted using a scintillation counter.
row,IC50,SMILES
1,0.025 µM,"CS(=O)(=O)c1cccc(-c2ccc([C@@H](O)[C@@H](N)c3ccc(Cl)c(Cl)c3)c(F)c2)c1 (racemic) [Example 1, rac-erythro-[2-Amino-2-(3,4-dichloro-phenyl)-1-(3-fluoro-3′-methanesulfonyl-biphenyl-4-yl)-ethanol trifluoroacetate]"
2,0.063 µM,"Cc1cc(-c2cncc(F)c2)ccc1[C@@H](O)[C@@H](N)c1ccc(Cl)c(Cl)c1 (racemic) [Example 2, rac-erythro-[2-Amino-2-(3,4-dichloro-phenyl)-1-[4-(5-fluoro-pyridin-3-yl)-2-methyl-phenyl]]-ethanol dihydrochloride]"
3,0.186 µM,"COc1cc([C@@H](O)[C@@H](N)c2ccc(Cl)c(Cl)c2)ccc1-c1cncc(F)c1 (racemic) [Example 3, rac-erythro-[2-Amino-2-(3,4-dichloro-phenyl)-1-[4-(5-fluoro-pyridin-3-yl)-3-methoxy-phenyl]-ethanoldihydrochloride]"
4,0.346 µM,"COc1cc(-c2cncc(F)c2)ccc1[C@@H](O)[C@@H](N)c1ccc(Cl)c(Cl)c1 (racemic) [Example 4, rac-erythro-[2-Amino-2-(3,4-dichloro-phenyl)-1-[4-(5-fluoro-pyridin-3-yl)-2-methoxy-phenyl]-ethanoldihydrochloride]"
5,0.615 µM,"CS(=O)(=O)c1cccc(-c2cccc([C@@H](O)[C@@H](N)c3ccc(Cl)c(Cl)c3)c2)c1 (racemic) [Example 5, rac-erythro-[2-Amino-2-(3,4-dichloro-phenyl)-1-(3′-methanesulfonyl-biphenyl-3-yl)-ethanol trifluoroacetate]"
6,0.041 µM,"CS(=O)(=O)c1cccc(-c2ccc([C@@H](O)[C@@H](N)c3ccc(Cl)c(Cl)c3)cc2)c1 (racemic) [Example 7, rac-erythro-[2-Amino-2-(3,4-dichloro-phenyl)-1-(3′-methanesulfonyl-biphenyl-4-yl)-ethanol trifluoroacetate]"
7,0.097 µM,"CS(=O)(=O)c1cccc(-c2ccc([C@@H](O)[C@@H](N)c3ccc(Cl)c(Cl)c3)nc2)c1 (racemic) [Example 11, rac-erythro-[2-Amino-2-(3,4-dichloro-phenyl)-1-[5-(3-methanesulfonyl-phenyl)-pyridin-2-yl]-ethanol bistrifluoroacetate]"
8,0.148 µM,"N[C@@H](c1ccc(Cl)c(Cl)c1)[C@H](O)c1ccc(-c2cncc(F)c2)cn1 (racemic) [Example 12, rac-erythro-[2-Amino-2-(3,4-dichloro-phenyl)-1-(5′-fluoro-[3,3′]bipyridinyl-6-yl)-ethanoltrihydrochloride]"
9,0.113 µM,"COc1cccc(-c2cnc([C@@H](O)[C@@H](N)c3ccc(Cl)c(Cl)c3)c(F)c2)c1 (racemic) [Example 13, rac-erythro-[2-Amino-2-(3,4-dichloro-phenyl)-1-[3-fluoro-5-(3-methoxy-phenyl)-pyridin-2-yl]-ethanoldihydrochloride]"
10,0.275 µM,"Cc1cc([C@@H](O)[C@@H](N)c2ccc(Cl)c(Cl)c2)ccc1-c1cncc(F)c1 (racemic) [Example 14, rac-erythro-[2-Amino-2-(3,4-dichloro-phenyl)-1-[4-(5-fluoro-pyridin-3-yl)-3-methyl-phenyl]-ethanolbis-trifluoroacetate]"
11,0.021 µM,"Cc1nc(OC2CCOC2)ccc1[C@@H](O)[C@@H](N)c1ccc(Cl)c(Cl)c1 (mixture of isomers) [Example 15, rac-erythro-[rac-2-Amino-2-(3,4-dichloro-phenyl)-1-[2-methyl-6-(tetrahydro-furan-3-yloxy)-pyridin-3-yl]-ethanoldihydrochloride]"
12,0.043 µM,"Cc1nc(OC2CCOCC2)ccc1[C@@H](O)[C@@H](N)c1ccc(Cl)c(Cl)c1 (racemic) [Example 17, rac-erythro-[2-Amino-2-(3,4-dichloro-phenyl)-1-[2-methyl-6-(tetrahydro-pyran-4-yloxy)-pyridin-3-yl]-ethanoldihydrochloride]"
13,0.082 µM,"N[C@@H](c1ccc(Cl)c(Cl)c1)[C@H](O)c1ccc(OC2CCOC2)nc1 (mixture of isomers) [Example 19, rac-erythro-[rac-2-Amino-2-(3,4-dichloro-phenyl)-1-[6-(tetrahydro-furan-3-yloxy)-pyridin-3-yl]-ethanoldihydrochloride]"
14,0.091 µM,"Cc1cc(OC2CCOCC2)ncc1[C@@H](O)[C@@H](N)c1ccc(Cl)c(Cl)c1 (racemic) [Example 21, rac-erythro-[2-Amino-2-(3,4-dichloro-phenyl)-1-[4-methyl-6-(tetrahydro-pyran-4-yloxy)-pyridin-3-yl]-ethanoldihydrochloride]"
15,0.131 µM,"N[C@@H](c1ccc(Cl)c(Cl)c1)[C@H](O)c1ccc(OC2CCOCC2)nc1 (racemic) [Example 22, rac-erythro-[2-Amino-2-(3,4-dichloro-phenyl)-1-[6-(tetrahydro-pyran-4-yloxy)-pyridin-3-yl]-ethanoldihydrochloride]"
16,0.16 µM,"N[C@@H](c1ccc(Cl)c(Cl)c1)[C@H](O)c1ccc(OC2CCOC2)cn1 (mixture of isomers) [Example 23, rac-erythro-[rac-2-Amino-2-(3,4-dichloro-phenyl)-1-[5-(tetrahydro-furan-3-yloxy)-pyridin-2-yl]-ethanoldihydrochloride]"
17,0.205 µM,"Cc1cc(OC2CCOC2)ncc1[C@@H](O)[C@@H](N)c1ccc(Cl)c(Cl)c1 (mixture of isomers) [Example 24, rac-erythro-[(rac)-2-Amino-2-(3,4-dichloro-phenyl)-1-[4-methyl-6-(tetrahydro-furan-3-yloxy)-pyridin-3-yl]-ethanoldihydrochloride]"
18,0.216 µM,"N[C@@H](c1ccc(Cl)c(Cl)c1)[C@H](O)c1ccc(OC2CCOCC2)cn1 (racemic) [Example 25, rac-erythro-[2-Amino-2-(3,4-dichloro-phenyl)-1-[5-(tetrahydro-pyran-4-yloxy)-pyridin-2-yl]-ethanoldihydrochloride]"
19,0.239 µM,"Cc1cc([C@@H](O)[C@@H](N)c2ccc(Cl)c(Cl)c2)cnc1OC1CCOCC1 (racemic) [Example 26, rac-erythro-[2-Amino-2-(3,4-dichloro-phenyl)-1-[5-methyl-6-(tetrahydro-pyran-4-yloxy)-pyridin-3-yl]-ethanoldihydrochloride]"
20,0.259 µM,"Cc1nc(OC(C)C)ccc1[C@@H](O)[C@@H](N)c1ccc(Cl)c(Cl)c1 (racemic) [Example 27, rac-erythro-[2-Amino-2-(3,4-dichloro-phenyl)-1-(6-isopropoxy-2-methyl-pyridin-3-yl)-ethanoldihydrochloride]"

row,SMILES,IC50
1,"N[C@@H](c1ccc(Cl)cc1)[C@H](O)c1ccc(OC2CCCOC2)cc1 (mixture of isomers) [Example 9, rac-erythro-[2-Amino-2-(4-chloro-phenyl)-1-[4-(tetrahydro-pyran-3-yloxy)-phenyl]-ethanol]",0.138 µM
2,"CC(C)Oc1ccc([C@@H](O)[C@@H](N)c2ccc(Cl)cc2)cc1 (racemic) [Example 10, rac-erythro-[2-Amino-2-(4-chloro-phenyl)-1-(4-isopropoxy-phenyl)-ethanol hydrochloride]",0.188 µM
3,"N[C@@H](c1ccc(Cl)c(Cl)c1)[C@H](O)c1ccc(OC2CCOC2)cc1F (mixture of isomers) [Example 16, rac-erythro-[rac-2-Amino-2-(3,4-dichloro-phenyl)-1-[2-fluoro-4-(tetrahydro-furan-3-yloxy)-phenyl]-ethanol hydrochloride]",0.039 µM
4,"N[C@@H](c1ccc(Cl)c(Cl)c1)[C@H](O)c1ccc(OC2CCOCC2)c(F)c1 (racemic) [Example 18, rac-erythro-[2-Amino-2-(3,4-dichloro-phenyl)-1-[3-fluoro-4-(tetrahydro-pyran-4-yloxy)-phenyl]-ethanol hydrochloride]",0.049 µM
5,"N[C@@H](c1ccc(Cl)c(Cl)c1)[C@H](O)c1cc(F)c(OC2CCOCC2)c(F)c1 (racemic) [Example 20, rac-erythro-[2-Amino-2-(3,4-dichloro-phenyl)-1-[3,5-difluoro-4-(tetrahydro-pyran-4-yloxy)-phenyl]-ethanol hydrochloride]",0.09 µM
